PubChem BioAssay AID248 (DTP/NCI, 2004)
Several values for one entry are separate records, joined by “and”; a condition that tells them apart may be missing. Equal entries are not always repeated. Toxic doses and inconclusive results are not listed. No stated cut-off is given here; in the data, active means T/C of 150% or more; inactive means T/C below 125%.

Tested on: L1210 leukemia ip in BDF1 mice, survival T/C
Test: NCI In Vivo Anticancer Drug Screen. Data for tumor model L1210 Leukemia (intraperitoneal) in B6D2F1 (BDF1) mice
Conditions: endpoint: mean survival time, higher = longer survival
In short: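 Ratio derived from survival: compound-dosed mice over vehicle-dosed mice, all bearing a transplantable tumor.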

[1] = dose: 50.0 mg/kg/injection, schedule: Q01DX001 (ip), vehicle: carboxymethylcellulose (CMC)
[2] = dose: 100.0 mg/kg/injection, schedule: Q01DX001 (ip), vehicle: carboxymethylcellulose (CMC)
[3] = dose: 200.0 mg/kg/injection, schedule: Q01DX001 (ip), vehicle: carboxymethylcellulose (CMC)
[4] = dose: 100.0 mg/kg/injection, schedule: Q01DX001 (ip), vehicle: saline
[5] = dose: 100.0 mg/kg/injection, schedule: Q04DX003 (ip), vehicle: Klucel (hydroxypropylcellulose) (HPC)
[6] = dose: 200.0 mg/kg/injection, schedule: Q04DX003 (ip), vehicle: Klucel (hydroxypropylcellulose) (HPC)
[7] = dose: 400.0 mg/kg/injection, schedule: Q04DX003 (ip), vehicle: Klucel (hydroxypropylcellulose) (HPC)
[8] = dose: 100.0 mg/kg/injection, schedule: Q01DX001 (ip), vehicle: other
[9] = dose: 200.0 mg/kg/injection, schedule: Q01DX001 (ip), vehicle: other
[10] = dose: 400.0 mg/kg/injection, schedule: Q01DX001 (ip), vehicle: other
[11] = dose: 100.0 mg/kg/injection, schedule: Q01DX009 (ip), vehicle: saline
[12] = dose: 100.0 mg/kg/injection, schedule: Q04DX003 (ip), vehicle: saline with Tween-80
[13] = dose: 200.0 mg/kg/injection, schedule: Q04DX003 (ip), vehicle: saline with Tween-80
[14] = dose: 400.0 mg/kg/injection, schedule: Q04DX003 (ip), vehicle: saline with Tween-80
[15] = dose: 100.0 mg/kg/injection, schedule: Q01DX009 (ip), vehicle: Klucel (hydroxypropylcellulose) (HPC)
[16] = dose: 200.0 mg/kg/injection, schedule: Q01DX009 (ip), vehicle: Klucel (hydroxypropylcellulose) (HPC)
[17] = dose: 400.0 mg/kg/injection, schedule: Q01DX009 (ip), vehicle: Klucel (hydroxypropylcellulose) (HPC)
[18] = dose: 100.0 mg/kg/injection, schedule: Q04DX003 (ip), vehicle: saline
[19] = dose: 100.0 mg/kg/injection, schedule: Q01DX009 (ip), vehicle: saline with Tween-80

Measured: T/C

O=C(Nc1ccc(F)cc1)Nc1cccc(O)c1
inactive: [1] 106 % of control | dose: 50.0 mg/kg/injection, schedule: Q04DX002 (ip), vehicle: carboxymethylcellulose (CMC) 97 % of control and 98 % of control | dose: 50.0 mg/kg/injection, schedule: Q04DX003 (ip), vehicle: carboxymethylcellulose (CMC) 101 % of control | [2] 103 % of control | dose: 100.0 mg/kg/injection, schedule: Q01DX009 (ip), vehicle: carboxymethylcellulose (CMC) 92 % of control and 101 % of control | dose: 100.0 mg/kg/injection, schedule: Q04DX002 (ip), vehicle: carboxymethylcellulose (CMC) 94 % of control and 95 % of control and 98 % of control | dose: 100.0 mg/kg/injection, schedule: Q04DX003 (ip), vehicle: carboxymethylcellulose (CMC) 102 % of control | [3] 96 % of control | dose: 200.0 mg/kg/injection, schedule: Q01DX009 (ip), vehicle: carboxymethylcellulose (CMC) 98 % of control | dose: 200.0 mg/kg/injection, schedule: Q04DX002 (ip), vehicle: carboxymethylcellulose (CMC) 95 % of control and 101 % of control and 90 % of control | dose: 200.0 mg/kg/injection, schedule: Q04DX003 (ip), vehicle: carboxymethylcellulose (CMC) 98 % of control | dose: 400.0 mg/kg/injection, schedule: Q01DX009 (ip), vehicle: carboxymethylcellulose (CMC) 98 % of control and 103 % of control

NC(=O)C1C(=O)c2cccc3c2C1(Br)C(Br)CCC3 (stereo not drawn)
inactive: [4] 93 % of control

NCCSc1ccccc1C(=O)O
inactive: [5] 92 % of control | [6] 112 % of control | [7] 102 % of control

O=S1C(c2ccccc2)CC1c1ccccc1 (stereo not drawn)
inactive: [5] 100 % of control | [6] 105 % of control | [7] 96 % of control

COC(=O)N/N=C/c1ccc(C)cc1
inactive: dose: 100.0 mg/kg/injection, schedule: Q04DX002 (ip), vehicle: Klucel (hydroxypropylcellulose) (HPC) 108 % of control | dose: 200.0 mg/kg/injection, schedule: Q04DX002 (ip), vehicle: Klucel (hydroxypropylcellulose) (HPC) 115 % of control | dose: 400.0 mg/kg/injection, schedule: Q04DX002 (ip), vehicle: Klucel (hydroxypropylcellulose) (HPC) 94 % of control

O=S(Cc1ccccc1)C(Cl)(Cl)c1ccccc1 (stereo not drawn)
inactive: [8] 96 % of control | [9] 98 % of control | [10] 102 % of control

O=C1CC(=O)N2C=CC=CC2=N1
inactive: [11] 101 % of control | dose: 200.0 mg/kg/injection, schedule: Q01DX009 (ip), vehicle: saline 95 % of control | dose: 400.0 mg/kg/injection, schedule: Q01DX009 (ip), vehicle: saline 92 % of control

CCCCCC(=O)/C=C/CC(CCCCCCC#N)C(CC(OC)OC)[N+](=O)[O-] (stereo not drawn)
inactive: [5] 100 % of control | [6] 96 % of control | [7] 96 % of control

CC(=O)CC(=O)Nc1cccc(Br)c1
inactive: [12] 102 % of control | [13] 97 % of control | [14] 97 % of control

CC(C)C(C#N)(CCCCN1CCOCC1)c1cccc2ccccc12 (stereo not drawn)
inactive: dose: 25.0 mg/kg/injection, schedule: Q04DX003 (ip), vehicle: Klucel (hydroxypropylcellulose) (HPC) 93 % of control | dose: 50.0 mg/kg/injection, schedule: Q04DX003 (ip), vehicle: Klucel (hydroxypropylcellulose) (HPC) 103 % of control | [5] 92 % of control

CCOC(=O)/C(C#N)=C\c1ccc(N(CC)CC)cc1
inactive: dose: 100.0 mg/kg/injection, schedule: Q01DX001 (ip), vehicle: Klucel (hydroxypropylcellulose) (HPC) 91 % of control | dose: 200.0 mg/kg/injection, schedule: Q01DX001 (ip), vehicle: Klucel (hydroxypropylcellulose) (HPC) 86 % of control | dose: 400.0 mg/kg/injection, schedule: Q01DX001 (ip), vehicle: Klucel (hydroxypropylcellulose) (HPC) 89 % of control

Clc1ccc(/C=C\c2ccncc2)cc1
inactive: [1] 102 % of control | [2] 98 % of control | [3] 119 % of control | dose: 400.0 mg/kg/injection, schedule: Q01DX001 (ip), vehicle: carboxymethylcellulose (CMC) 98 % of control

O=C(Nc1ccccc1F)Oc1ccc2ccccc2c1
inactive: [15] 106 % of control | [16] 107 % of control | [17] 103 % of control

CC1(C#N)CC/C(=C\c2ccc3c(c2)OCO3)C(=O)C1 (stereo not drawn)
inactive: [18] 96 % of control | dose: 200.0 mg/kg/injection, schedule: Q04DX003 (ip), vehicle: saline 91 % of control | dose: 400.0 mg/kg/injection, schedule: Q04DX003 (ip), vehicle: saline 107 % of control

O=S(=O)(Nc1ccccc1Cl)c1ccccc1
inactive: dose: 100.0 mg/kg/injection, schedule: Q01DX009 (ip), vehicle: gum acacia 100 % of control | dose: 100.0 mg/kg/injection, schedule: Q04DX003 (ip), vehicle: gum acacia 93 % of control | dose: 200.0 mg/kg/injection, schedule: Q01DX009 (ip), vehicle: gum acacia 98 % of control | dose: 200.0 mg/kg/injection, schedule: Q04DX003 (ip), vehicle: gum acacia 95 % of control | dose: 400.0 mg/kg/injection, schedule: Q01DX009 (ip), vehicle: gum acacia 94 % of control | dose: 400.0 mg/kg/injection, schedule: Q04DX003 (ip), vehicle: gum acacia 95 % of control

O=[N+]([O-])c1cccc([N+](=O)[O-])c1/C=N/Nc1nnc(N/N=C/c2c([N+](=O)[O-])cccc2[N+](=O)[O-])c2ccccc12
inactive: dose: 50.0 mg/kg/injection, schedule: Q01DX001 (ip), vehicle: saline 100 % of control | [4] 103 % of control | dose: 200.0 mg/kg/injection, schedule: Q01DX001 (ip), vehicle: saline 100 % of control | dose: 400.0 mg/kg/injection, schedule: Q01DX001 (ip), vehicle: saline 100 % of control

O=C(O)c1cnc(Cl)c(Br)c1
inactive: [12] 94 % of control | [13] 94 % of control | [14] 96 % of control

Cc1ccccc1N=C1C(=O)Nc2ccccc21
inactive: [8] 115 % of control | [9] 91 % of control | [10] 107 % of control

O=C(O)c1ccc(OCCCCOc2ccccc2)c(Cl)c1
inactive: [15] 98 % of control | [16] 98 % of control | [17] 95 % of control

CCCCOc1ccc(N)cn1
inactive: dose: 25.0 mg/kg/injection, schedule: Q01DX009 (ip), vehicle: saline 95 % of control | dose: 50.0 mg/kg/injection, schedule: Q01DX009 (ip), vehicle: saline 95 % of control | [11] 113 % of control | [18] 96 % of control

CC(=O)c1ccc(F)c(C)c1
inactive: dose: 100.0 mg/kg/injection, schedule: Q04DX003 (ip), vehicle: saline sonified 93 % of control | dose: 200.0 mg/kg/injection, schedule: Q04DX003 (ip), vehicle: saline sonified 97 % of control | dose: 400.0 mg/kg/injection, schedule: Q04DX003 (ip), vehicle: saline sonified 93 % of control

Nc1ccc(OCc2ccccc2)cc1
inactive: dose: 50.0 mg/kg/injection, schedule: Q01DX009 (ip), vehicle: saline with Tween-80 96 % of control | dose: 50.0 mg/kg/injection, schedule: Q04DX003 (ip), vehicle: saline with Tween-80 100 % of control | [19] 87 % of control | [12] 103 % of control | [13] 109 % of control

CC(=O)OC1C=CS(=O)(=O)C1 (stereo not drawn)
inactive: [19] 94 % of control | dose: 200.0 mg/kg/injection, schedule: Q01DX009 (ip), vehicle: saline with Tween-80 103 % of control | dose: 400.0 mg/kg/injection, schedule: Q01DX009 (ip), vehicle: saline with Tween-80 96 % of control

C=CS(=O)(=O)c1ccc([N+](=O)[O-])cc1
inactive: dose: 6.25 mg/kg/injection, schedule: Q04DX002 (ip), vehicle: saline with Tween-80 92 % of control | dose: 12.5 mg/kg/injection, schedule: Q04DX002 (ip), vehicle: saline with Tween-80 101 % of control | dose: 25.0 mg/kg/injection, schedule: Q04DX002 (ip), vehicle: saline with Tween-80 94 % of control

CCC(c1ccccc1)c1nc2ccccc2c2ccccc12 (stereo not drawn)
inactive: dose: 50.0 mg/kg/injection, schedule: Q01DX009 (ip), vehicle: Klucel (hydroxypropylcellulose) (HPC) 97 % of control | [15] 97 % of control | [16] 94 % of control

Cc1ccc([N+](=O)[O-])cc1NC(=O)SCc1ccccc1
inactive: [5] 93 % of control | [6] 102 % of control | [7] 105 % of control
